Biological target: mitochondrial complex I (NADH:ubiquinone oxidoreductase, NQR) (Mus musculus, UniProt P03888+Q91WD5+Q9DC70)
Assay: NQR activity
Type: biochemical

`O=C1Nc2ccc(Cl)cc2[C@@](C#CC2CC2)(C(F)(F)F)O1` [EFV, efavirenz] showed an IC50 of under 10 µM.
